# Measured values taken from ChEMBL document CHEMBL4257562, “Pseudomonas aeruginosa Quorum Sensing Systems as Drug Discovery Targets: Current Position and Future Perspectives” (J Med Chem, 2018).
# Columns and labels:
# [1] = Antagonist activity at Escherichia coli DH5alpha PqsR by beta-galactosidase reporter gene assay
# [2] = molecular target: T1, 2-heptyl-4(1H)-quinolone synthase PqsD (Pseudomonas aeruginosa, UniProt A0A0C7ACN7); assay: Inhibition of recombinant Pseudomonas aeruginosa PqsD expressed in Escherichia coli using anthraniloyl-CoA as substrate assessed as decrease in HHQ production
# T1 sequence (A0A0C7ACN7 whole entry): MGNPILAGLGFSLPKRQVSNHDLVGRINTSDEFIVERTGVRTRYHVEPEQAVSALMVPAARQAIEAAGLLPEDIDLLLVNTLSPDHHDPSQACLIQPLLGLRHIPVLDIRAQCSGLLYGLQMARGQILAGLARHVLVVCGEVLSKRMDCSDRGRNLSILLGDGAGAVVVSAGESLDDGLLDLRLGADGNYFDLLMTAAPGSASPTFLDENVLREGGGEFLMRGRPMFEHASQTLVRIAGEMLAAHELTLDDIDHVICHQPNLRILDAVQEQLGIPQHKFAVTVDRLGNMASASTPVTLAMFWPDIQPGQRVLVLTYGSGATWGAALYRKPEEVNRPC
# [3] = molecular target: T1, 2-heptyl-4(1H)-quinolone synthase PqsD; assay: Binding affinity to recombinant Pseudomonas aeruginosa PqsD at 298 K by ITC assay
# [4] = molecular target: T2, Transcriptional activator protein LasR (Pseudomonas aeruginosa (strain ATCC 15692 / PAO1 / 1C / PRS 101 / LMG12228), UniProt P25084); assay: Antagonist activity at LasR in Pseudomonas aeruginosa reporter strain
# T2 sequence (P25084 whole entry): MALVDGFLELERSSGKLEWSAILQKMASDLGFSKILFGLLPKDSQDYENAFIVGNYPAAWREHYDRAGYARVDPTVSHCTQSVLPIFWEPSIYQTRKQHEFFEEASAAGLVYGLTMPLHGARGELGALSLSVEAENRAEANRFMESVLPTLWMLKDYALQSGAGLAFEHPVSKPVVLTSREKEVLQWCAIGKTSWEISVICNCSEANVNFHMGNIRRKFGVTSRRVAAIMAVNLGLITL
# [5] = molecular target: T2, Transcriptional activator protein LasR; assay: Antagonist activity at Pseudomonas aeruginosa LasR expressed in Escherichia coli DH5alpha assessed as inhibition of […]-induced receptor activation after 4 hrs by Miller-type beta-galactosidase reporter gene assay
# [6] = Inhibition of Pseudomonas aeruginosa PA14 PqsBC catalytic activity using 2-ABA/octanoyl-CoA as substrate after 5 mins
# [7] = molecular target: T1, 2-heptyl-4(1H)-quinolone synthase PqsD; assay: Antagonist activity at Pseudomonas aeruginosa PqsD
# [8] = molecular target: T3, HTH-type quorum-sensing regulator RhlR (Pseudomonas aeruginosa (strain ATCC 15692 / PAO1 / 1C / PRS 101 / LMG12228), UniProt P54292); assay: Inhibition of Pseudomonas aeruginosa GFP-fused RhlR expressed in Escherichia coli BL21-Gold (DE3) co-expressing rhlA promoter by beta-galactosidase reporter gene assay
# T3 sequence (P54292 whole entry): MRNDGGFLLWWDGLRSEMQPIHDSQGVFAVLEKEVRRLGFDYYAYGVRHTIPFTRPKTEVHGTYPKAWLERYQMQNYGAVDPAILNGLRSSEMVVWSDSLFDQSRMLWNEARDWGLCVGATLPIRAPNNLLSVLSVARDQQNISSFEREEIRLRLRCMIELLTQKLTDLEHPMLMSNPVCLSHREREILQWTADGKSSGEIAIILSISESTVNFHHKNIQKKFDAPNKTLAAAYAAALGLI
# [9] = tested on: Pseudomonas aeruginosa; assay: Inhibition of Pseudomonas aeruginosa quorum sensing system assessed as decrease in C4-HSL production at 6 mM relative to control
# [10] = tested on: Pseudomonas aeruginosa; assay: Inhibition of Pseudomonas aeruginosa quorum sensing system assessed as decrease in 3OC12-HSL production at 6 mM relative to control
# [11] = molecular target: T4, Transcriptional activator protein LasR (Pseudomonas aeruginosa (strain ATCC 15692 / PAO1 / 1C / PRS 101 / LMG12228)) (UniProt P25084); assay: Inhibition of OC12-HSL-dependent LasR activation in Pseudomonas aeruginosa MH602 harboring GFP-fused quorum sensing lasB at 250 uM measured every 30 mins up to 15 hrs by GFP reporter gene assay
# T4 sequence (whole entry): T2 sequence (P25084 whole entry)
# [12] = molecular target: T5, Acyl-homoserine-lactone synthase (Pseudomonas aeruginosa (strain ATCC 15692 / PAO1 / 1C / PRS 101 / LMG12228)) (UniProt P33883); assay: Inhibition of Pseudomonas aeruginosa PAO1 LasI after 10 mins by beta-galactosidase reporter gene assay
# T5 sequence (whole entry): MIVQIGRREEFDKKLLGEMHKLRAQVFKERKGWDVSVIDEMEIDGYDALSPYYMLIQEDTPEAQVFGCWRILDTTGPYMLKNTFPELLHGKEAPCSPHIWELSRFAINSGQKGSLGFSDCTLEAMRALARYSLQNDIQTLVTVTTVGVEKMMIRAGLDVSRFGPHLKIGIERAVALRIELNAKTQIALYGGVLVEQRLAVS
# [13] = molecular target: T4, Transcriptional activator protein LasR (Pseudomonas aeruginosa (strain ATCC 15692 / PAO1 / 1C / PRS 101 / LMG12228)); assay: Antagonist activity at Pseudomonas aeruginosa LasR expressed in Pseudomonas putida F117 assessed as inhibition of 3-oxo-C12-HSL-induced protein activation at 20 uM after 4 hrs by fluorescence assay relative to control
# [14] = molecular target: T2, Transcriptional activator protein LasR; assay: Antagonist activity at Pseudomonas aeruginosa LasR expressed in Escherichia coli DH5alpha assessed as inhibition of protein interaction with OdDHL after 1.5 hrs by beta-galactosidase reporter gene assay
# [15] = molecular target: T2, Transcriptional activator protein LasR; assay: Inhibition of LasR in Pseudomonas aeruginosa reporter strain harboring gfp-lasB
# [16] = tested on: Pseudomonas aeruginosa; assay: In vivo inhibition of Pseudomonas aeruginosa PA14 PqsR in immunocompetent acute mouse thigh infection model assessed as decrease in PQS levels in plasma at 200 mg/kg, po administered at 2, 10, 18 and 26 hrs post infection measured at 12 hrs relative to control; assay type: functional
# [17] = molecular target: T2, Transcriptional activator protein LasR; assay: Antagonist activity at GFP-fused LasR in Pseudomonas aeruginosa PAO-JP2 co-expressing LVAgfp plasmid by fluorescence assay
# [18] = tested on: Pseudomonas aeruginosa; assay: Inhibition of Pseudomonas aeruginosa PQS signaling at 138 uM relative to control
# [19] = molecular target: T2, Transcriptional activator protein LasR; assay: Antagonist activity at Pseudomonas aeruginosa MW1 LasR assessed as inhibition of protein interaction with OdDHL by beta-galactosidase reporter gene assay
# [20] = molecular target: T1, 2-heptyl-4(1H)-quinolone synthase PqsD; assay: Inhibition of Pseudomonas aeruginosa PqsD
# [21] = tested on: Pseudomonas aeruginosa; assay: Antibiofilm activity against Pseudomonas aeruginosa PA14 at 100 uM; assay type: functional
# [22] = Antagonist activity at Pseudomonas aeruginosa PqsR
# [23] = molecular target: T2, Transcriptional activator protein LasR; assay: Antagonist activity at LasR in Pseudomonas aeruginosa PAO1 harboring GFP-fused quorum sensing lasB measured every 15 mins for 14 hrs by GFP reporter gene assay
# [24] = molecular target: T6, HTH-type quorum-sensing regulator RhlR (Pseudomonas aeruginosa (strain ATCC 15692 / PAO1 / 1C / PRS 101 / LMG12228)) (UniProt P54292); conditions: 2.27 mM
# T6 sequence (whole entry): T3 sequence (P54292 whole entry)
# Description: Antagonist activity at Pseudomonas aeruginosa PAO1 GFP-fused RhlR expressed in Escherichia coli DH5alpha co-expressing rhlA promoter assessed as inhibition of L-arabinose-induced C4-HSL production at 2.27 mM after 5 hrs relative to control
# [25] = molecular target: T4, Transcriptional activator protein LasR (Pseudomonas aeruginosa (strain ATCC 15692 / PAO1 / 1C / PRS 101 / LMG12228)); assay: Non-competitive inhibition of Pseudomonas aeruginosa LasR expressed in Escherichia coli; conditions: concentration not given here
# [26] = molecular target: T6, HTH-type quorum-sensing regulator RhlR (Pseudomonas aeruginosa (strain ATCC 15692 / PAO1 / 1C / PRS 101 / LMG12228)); assay: Non-competitive inhibition of Pseudomonas aeruginosa RhlR expressed in Escherichia coli; conditions: concentration not given here
# [27] = molecular target: T2, Transcriptional activator protein LasR; assay: Inhibition of LasR in Pseudomonas aeruginosa harboring GFP-fused quorum sensing lasB measured every 15 mins up to 12 hrs by GFP reporter gene assay
# [28] = tested on: Escherichia coli; assay: Antagonist activity at Escherichia coli LasR at 6 uM by luciferase reporter gene assay
# [29] = Antagonist activity at Escherichia coli LasR assessed as inhibition of protein interaction with OdDHL by beta-galactosidase reporter gene assay
# [30] = Inhibition of Pseudomonas aeruginosa PqsR
# [31] = Antagonist activity at Pseudomonas aeruginosa His6/Sumo-tagged PqsR by beta-galactosidase reporter gene assay
# [32] = Antagonist activity at Escherichia coli His6/Sumo-tagged PqsR by beta-galactosidase reporter gene assay
# [33] = Inhibition of Pseudomonas aeruginosa PqsBC assessed as decrease in conversion of 2-ABA/octanoyl-CoA to HHQ measured every 60 secs
smiles,measurement,setting,value
CCCCCCCc1cc(=O)c2cc([N+](=O)[O-])ccc2[nH]1,IC50,[1],0.051 µM
O=[N+]([O-])c1ccccc1C(O)c1ccccc1 (configuration not stated),IC50,[2],3.2 µM
same,Kd,[3],13 µM
O=C(CCSc1ccc(Cl)cc1)N[C@H]1CCOC1=O,IC50,[4],5.2 µM
O=C(CCCCCCCCCN=C=S)CC(=O)N[C@H]1CCOC1=O,IC50,[5],134 µM
O=C(CSc1nc2ccc([N+](=O)[O-])cc2[nH]1)Nc1ccc(I)cc1,IC50,[6],13.4 µM
O=C(Nc1ccccc1C(=O)O)c1ccc(-c2ccccc2)c(Oc2ccccc2)c1,IC50,[7],35 µM
O=C(CCCCOc1cccc(Br)c1)NC1CCSC1=O (configuration not stated),IC50,[8],8 µM
CN(C)CCc1ccc(O)cc1,inhibition,[9],70%
same,inhibition,[10],30%
CCOC(=O)CNC(=O)C(=O)c1ccccc1Nc1ccc([N+](=O)[O-])cc1[N+](=O)[O-],inhibition,[11],48%
CCCCCCC/C=C1\SC(=O)NC1=O,inhibition,[12],40%
NC(=O)SCNc1ccccc1O,inhibition,[13],50 to 60%
O=C(CCCC1CCCCC1)N[C@H]1CCOC1=O,IC50,[14],10 µM
CCCCCC(=O)Nc1c(-c2ccccc2)[nH]c2ccccc12,inhibition,[11],65%
C=CCSS/C=C/C[S+]([O-])CC=C (configuration not stated) [AJOENE],IC50,[15],15 µM
NC(=O)SCNc1cccc(Cl)c1,inhibition,[13],50 to 60%
NC(=O)c1cc2cc(Cl)ccc2cc1OCC(=O)c1c[nH]c2cc(C3CC3)ccc12,inhibition in vivo at 200 mg/kg,[16],50%
O=C(N[C@H]1CCOC1=O)c1ccc(-n2cc(CSc3ccccc3)nn2)cc1,IC50,[4],2.64 µM
CCCCc1cn(CC(=O)N[C@H]2CCOC2=O)nn1,IC50,[4],3.27 µM
O=C(CCCc1c[nH]c2ccccc12)N[C@H]1CCOC1=O,IC50,[17],16.1 µM
NCCCCCCCCCCCCNc1ccnc2cc(Cl)ccc12,inhibition,[18],81%
CCCCCCCCNC(=O)CC(=O)c1ccccc1,IC50,[19],10 µM
Nc1cccc(-n2cc(CCC(=O)N[C@H]3CCOC3=O)nn2)c1,IC50,[4],4.03 µM
CCCCCCS(=O)(=O)c1ncc(-n2ccnn2)cn1,IC50,[20],1.7 µM
same,Activity,[21],60%
CS(=O)(=O)c1ncc(-n2cc(C(O)C3CCCC3)nn2)cn1 (configuration not stated),IC50,[22],26 µM
O=C(Cc1cccc(I)c1)N[C@H]1CCOC1=O,IC50,[14],1.72 µM
Nc1nc2nn[nH]c2c(=O)[nH]1 [8-AZAGUANINE],IC50,[23],0.64 µM
O=C(Cc1ccc(Br)cc1)N[C@H]1CCOC1=O,IC50,[17],14.8 µM
C[S+]([O-])CCCCN=C=S (configuration not stated),inhibition,[24],42.1%
O=c1cc(-c2ccccc2)oc2c(O)c(O)ccc12,inhibition,[25],> 70%
same,inhibition,[26],> 70%
CCCCCCCOc1ccc(C(=O)N[C@H]2CCOC2=O)cc1,IC50,[14],1 µM
Nc1ccc(S(=O)(=O)Nc2nccs2)cc1 [SULFATHIAZOLE],IC50,[27],9 µM
Cc1ccc2nc(SCC(=O)Nc3ccc(Br)cc3)[nH]c2c1,IC50,[6],12.5 µM
CCN(CC)S(=O)(=O)c1cc(C(=O)Nc2ccccc2C(=O)O)ccc1Br,IC50,[7],65 µM
CCCCCCCSCC(=O)N[C@H]1CCOC1=O,inhibition,[28],50%
O=C(NCCc1ccc(Br)cc1)c1ccccc1[N+](=O)[O-],IC50,[29],4.8 µM
CS(=O)(=O)c1ncc(-n2cnnn2)cn1,IC50,[20],21 µM
same,IC50,[30],15 µM
CC(C)(C)c1ccc(C(=O)NO)cc1,IC50,[31],23.6 µM
same,IC50,[32],12.5 µM
CCCCCCCC(=O)N[C@H]1CCOC1=O,IC50,[14],0.34 µM
O=C(CCc1ccc(Br)cc1)N[C@H]1CCOC1=O,IC50,[14],0.25 µM
CC(=O)c1ccccc1N [2-AMINOACETOPHENONE],EC50,[33],46 µM
CCCCCCCc1cc(=O)c2cc(C(F)(F)F)ccc2[nH]1,IC50,[1],0.054 µM
